Legend:
[1] = system: PTX-sensitive Gi-proteins; assay: PTX sensitivity of [Ca2+]i increase in neutrophils; assay type: cell-based, human; details: PTX 1 μg/ml for 90 min; m-3M3FBS 25 μM, fMLF 1 μM
Method: Isolated neutrophils were preincubated with PTX (1 μg/ml) or vehicle for 90 min at 37° C. and stimulated with m-3M3FBS, FMLF, or ATP at concentrations of 25, 1, and 500 μM, respectively. Changes in the excitation ratios at 340 nm/380 nm were monitored. Data are presented as means ±S. E. M. of two independent experiments (A). cAMP levels were determined by a radio receptor assay. Prepared cells were treated with m-3M3FBS (25 μM) or histamine (100 μM) and then lysed with Tris-EDTA. After removing the supernatant, [ 3H] cAMP and protein were added, and the amount of [^3H] cAMP-protein complex was determined. The amount of unlabeled cAMP (in the sample) was then calculated by measuring the protein-bound radioactivity. Data are presented as means ±S. E. M. of two independent experiments (B). RGS2-GFP inducible HeLa cells were cultured for 48 h in the absence or in the presence of tetracycline, and the induction of RGS2-GFP was confirmed by Western blot analysis using anti-GFP antibody (C). RGS2-GFP inducible HeLa cells were cultured for 48 h in the absence or in the presence of tetracycline and loaded with fura-2. Cells were treated with histamine (100 μM) or m-3M3FBS (25 μM), and changes in the 340 nm/380 nm ratios were monitored and converted to [Ca^2+]i values. The results shown are representative of three independent experiments (C).
Freshly prepared human neutrophils were incubated in serum free RPMI 1640 medium with 3 μM of fura-2/AM at 37° C. for 30 min with continuous stirring. After washing with serum free RPMI 1640 medium, the cells were suspended in serum free RPMI containing 250 μM of sulfinpyrazone to prevent dye leakage. About 2×10^6 cells were suspended in Ca^2+ free Locke's solution (158.4 mM NaCl, 5.6 mM KCl, 1.2 mM MgCl2, 5 mM HEPES pH 7.3, 10 mM glucose, and 0.2 mM EGTA) for each measurement. Changes in the fluorescence ratio were measured at an emission wavelength of 500 nm for dual excitation wavelengths at 340 nm and 380 nm. The calibration of the fluorescence ratio versus [Ca^2+]i was performed as described by Grynkiewicz (Grynkiewicz et al., 1985).

PI3-kinase = assay: Akt phosphorylation in U937 cells; assay type: cell-based, human; details: 50 μM, data not shown
Text: The result led us to check whether the compound act specifically on PLC or act on other enzymes that recognize phosphoinositols as substrates such as phosphoinositide-3-kinase (PI3-kinase). For this, we tested the effect of m-3M3FBS on the Akt phosphorylation that is dependent on the PI3-kinase in U937 cells. […] The result support our notion that m-3M3FBS acts specifically on PLC.

Cc1cc(C)c(S(=O)(=O)Nc2cccc(C(F)(F)F)c2)c(C)c1 [m-3M3FBS, 2,4,6-Trimethyl-N-(meta 3-trifluoromethyl-phenyl)-benzenesulfonamide]
effect of PTX preincubation on the induced calcium increase [1]: insensitive to PTX | phosphorylation level of Akt (PI3-kinase): couldn't significantly increase
